By residual activity is commonly meant the signal under treatment as a percentage of the control signal.

Chain of STK4 (human) (Q13043 whole entry, looked up): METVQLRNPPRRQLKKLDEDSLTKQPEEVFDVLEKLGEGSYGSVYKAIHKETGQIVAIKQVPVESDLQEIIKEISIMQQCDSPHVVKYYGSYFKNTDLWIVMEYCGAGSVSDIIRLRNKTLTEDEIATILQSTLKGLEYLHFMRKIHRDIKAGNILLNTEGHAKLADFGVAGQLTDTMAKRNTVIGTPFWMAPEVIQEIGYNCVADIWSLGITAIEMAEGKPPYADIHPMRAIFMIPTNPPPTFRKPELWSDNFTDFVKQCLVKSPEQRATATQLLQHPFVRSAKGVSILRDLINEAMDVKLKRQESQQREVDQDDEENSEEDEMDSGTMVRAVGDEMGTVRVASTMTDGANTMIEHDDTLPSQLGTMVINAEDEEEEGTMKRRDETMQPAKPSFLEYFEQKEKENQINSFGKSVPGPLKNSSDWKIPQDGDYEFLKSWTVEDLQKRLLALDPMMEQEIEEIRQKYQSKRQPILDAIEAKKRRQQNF
Chain of FRK (human) (P42685 whole entry, looked up): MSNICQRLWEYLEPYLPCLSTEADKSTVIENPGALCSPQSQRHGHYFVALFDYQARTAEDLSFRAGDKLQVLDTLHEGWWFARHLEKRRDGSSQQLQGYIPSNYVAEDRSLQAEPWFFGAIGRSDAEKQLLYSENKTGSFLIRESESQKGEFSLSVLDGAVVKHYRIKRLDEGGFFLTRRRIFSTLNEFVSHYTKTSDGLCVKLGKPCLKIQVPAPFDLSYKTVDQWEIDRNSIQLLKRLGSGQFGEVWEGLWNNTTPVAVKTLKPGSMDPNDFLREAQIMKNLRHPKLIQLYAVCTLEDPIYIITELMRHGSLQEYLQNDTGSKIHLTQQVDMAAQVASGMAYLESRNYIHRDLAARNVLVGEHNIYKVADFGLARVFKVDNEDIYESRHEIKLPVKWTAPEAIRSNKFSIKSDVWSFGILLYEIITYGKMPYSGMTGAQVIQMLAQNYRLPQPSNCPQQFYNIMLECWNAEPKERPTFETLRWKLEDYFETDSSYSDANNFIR

The target in one assay is PAK6 (human) (UniProt Q9NQU5). Nature of the assay: radiometric filter-binding kinase assay, Kinase HotSpot. Conditions: compound 0.5 µM; ATP 10 µM.
Regarding `O=C1NC(=O)C(c2cn(CCCO)c3ncccc23)=C1c1cnccn1`, the residual activity is 78.2%.
Turning to `COc1cc2ncnc(N3CCN(C(=O)Nc4ccc(Oc5ccccc5)cc4)CC3)c2cc1OC`, the residual activity amounted to 95.2%.
On the same count and under the same terms, in the case of `Oc1ccc(Nc2nc(-c3ccc(Cl)cc3)cs2)cc1` it was 100%.

In another assay the target is RPS6KB2 (human) (UniProt Q9UBS0). The description is as above. The conditions noted are these: compound 0.5 µM; ATP 10 µM.
On to `O=C1NC(=O)C(c2cn(CCCO)c3ncccc23)=C1c1cnccn1`, for which the residual activity came to 94.7%.
With `COc1cc2ncnc(N3CCN(C(=O)Nc4ccc(Oc5ccccc5)cc4)CC3)c2cc1OC`, the residual activity was determined as 92.4%.
For `Oc1ccc(Nc2nc(-c3ccc(Cl)cc3)cs2)cc1`, the residual activity was determined as 99.8%.

In another assay the target is LRRK2 (human) (UniProt Q5S007). The assay is described as above. The conditions noted are these: compound 0.5 µM; ATP 10 µM.
Regarding `O=C1NC(=O)C(c2cn(CCCO)c3ncccc23)=C1c1cnccn1`, the residual activity is 90%.
Still for that read-out and setting: the same measure for `COc1cc2ncnc(N3CCN(C(=O)Nc4ccc(Oc5ccccc5)cc4)CC3)c2cc1OC`: 98.3%.
Regarding `Oc1ccc(Nc2nc(-c3ccc(Cl)cc3)cs2)cc1`, the residual activity was 98.7%.

For a further assay, the target named is PDPK1 (human) (UniProt O15530). The description is as above. Conditions: compound 0.5 µM; ATP 10 µM.
Take `O=C1NC(=O)C(c2cn(CCCO)c3ncccc23)=C1c1cnccn1`: the residual activity came to 92.2%.
Regarding `COc1cc2ncnc(N3CCN(C(=O)Nc4ccc(Oc5ccccc5)cc4)CC3)c2cc1OC`, the residual activity was found to be 92.3%.
Still for that read-out and setting: in the case of `Oc1ccc(Nc2nc(-c3ccc(Cl)cc3)cs2)cc1` it was 101%.

Another assay has as its target CDK6 CCND1 (human) (UniProt Q00534+P24385). The assay is described as above. Conditions: compound 0.5 µM; ATP 10 µM.
For `O=C1NC(=O)C(c2cn(CCCO)c3ncccc23)=C1c1cnccn1`, the residual activity was 83.4%.
Same read-out and setting: in the case of `COc1cc2ncnc(N3CCN(C(=O)Nc4ccc(Oc5ccccc5)cc4)CC3)c2cc1OC` it was 95.1%; in that of `Oc1ccc(Nc2nc(-c3ccc(Cl)cc3)cs2)cc1`, 101%.

In the next assay the target is RPS6KA2 KD1 KD2 (human) (UniProt Q15349). The description is as above. Conditions: compound 0.5 µM; ATP 10 µM.
Turning to `O=C1NC(=O)C(c2cn(CCCO)c3ncccc23)=C1c1cnccn1`, the residual activity worked out at 73.2%.
On the same count and under the same terms, in the case of `COc1cc2ncnc(N3CCN(C(=O)Nc4ccc(Oc5ccccc5)cc4)CC3)c2cc1OC` it was 86.1%.
The same measure, in the same setting: in the case of `Oc1ccc(Nc2nc(-c3ccc(Cl)cc3)cs2)cc1` it was 101%.

The target in the next assay is EPHA5 (human) (UniProt P54756). The description is as above. Conditions: compound 0.5 µM; ATP 10 µM.
Chain of EPHA5 (human) (P54756 whole entry, looked up): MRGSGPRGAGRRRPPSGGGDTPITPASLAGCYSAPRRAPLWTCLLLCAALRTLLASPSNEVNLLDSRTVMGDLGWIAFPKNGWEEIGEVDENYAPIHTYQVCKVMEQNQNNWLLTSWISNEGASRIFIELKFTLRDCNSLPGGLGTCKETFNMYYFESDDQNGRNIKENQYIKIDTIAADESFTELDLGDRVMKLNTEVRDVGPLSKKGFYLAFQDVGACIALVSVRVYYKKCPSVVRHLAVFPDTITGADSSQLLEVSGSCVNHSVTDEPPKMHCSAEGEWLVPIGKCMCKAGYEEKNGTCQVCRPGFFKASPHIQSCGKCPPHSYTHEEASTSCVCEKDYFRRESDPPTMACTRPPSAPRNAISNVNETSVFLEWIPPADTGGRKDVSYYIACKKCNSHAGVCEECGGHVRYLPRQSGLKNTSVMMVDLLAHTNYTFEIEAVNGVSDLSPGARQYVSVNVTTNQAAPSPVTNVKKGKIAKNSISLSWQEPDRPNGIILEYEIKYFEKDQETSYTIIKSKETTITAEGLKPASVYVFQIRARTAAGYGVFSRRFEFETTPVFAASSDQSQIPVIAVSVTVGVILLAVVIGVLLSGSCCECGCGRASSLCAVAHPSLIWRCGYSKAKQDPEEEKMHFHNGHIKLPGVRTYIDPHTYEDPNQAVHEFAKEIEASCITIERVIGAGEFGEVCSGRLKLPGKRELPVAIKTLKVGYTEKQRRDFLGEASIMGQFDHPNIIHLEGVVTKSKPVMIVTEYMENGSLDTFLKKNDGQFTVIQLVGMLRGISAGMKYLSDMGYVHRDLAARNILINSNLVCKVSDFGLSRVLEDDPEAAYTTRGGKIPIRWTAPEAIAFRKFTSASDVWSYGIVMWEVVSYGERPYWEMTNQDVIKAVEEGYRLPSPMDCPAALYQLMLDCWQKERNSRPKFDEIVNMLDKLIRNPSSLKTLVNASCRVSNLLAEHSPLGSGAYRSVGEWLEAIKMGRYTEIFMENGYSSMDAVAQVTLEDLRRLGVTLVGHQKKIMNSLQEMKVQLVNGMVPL
With `O=C1NC(=O)C(c2cn(CCCO)c3ncccc23)=C1c1cnccn1`, the residual activity was found to be 99.4%.
In the case of `COc1cc2ncnc(N3CCN(C(=O)Nc4ccc(Oc5ccccc5)cc4)CC3)c2cc1OC`, the residual activity was determined as 98.3%.
Still for that read-out and setting: in the case of `Oc1ccc(Nc2nc(-c3ccc(Cl)cc3)cs2)cc1` it was 92.6%.

Another assay addresses STK39 (human) (UniProt Q9UEW8). Described as above. The conditions noted are these: compound 0.5 µM; ATP 10 µM.
For the compound `O=C1NC(=O)C(c2cn(CCCO)c3ncccc23)=C1c1cnccn1`, the residual activity came to 111%.
The same measure, in the same setting: in the case of `COc1cc2ncnc(N3CCN(C(=O)Nc4ccc(Oc5ccccc5)cc4)CC3)c2cc1OC` it was 83.2%; in that of `Oc1ccc(Nc2nc(-c3ccc(Cl)cc3)cs2)cc1`, 94.2%.

A further assay addresses EPHB4 (human) (UniProt P54760). Described as above. The conditions noted are these: compound 0.5 µM; ATP 10 µM.
`O=C1NC(=O)C(c2cn(CCCO)c3ncccc23)=C1c1cnccn1`: the residual activity was found to be 95.2%.
Same read-out and setting: the same measure for `COc1cc2ncnc(N3CCN(C(=O)Nc4ccc(Oc5ccccc5)cc4)CC3)c2cc1OC`: 99.3%.
The same measure, in the same setting: in the case of `Oc1ccc(Nc2nc(-c3ccc(Cl)cc3)cs2)cc1` it was 89.6%.

Another assay deals with NLK (human) (UniProt Q9UBE8). The description is as above. The conditions noted are these: compound 0.5 µM; ATP 10 µM.
Turning to `O=C1NC(=O)C(c2cn(CCCO)c3ncccc23)=C1c1cnccn1`, the residual activity was 91.2%.
As to `COc1cc2ncnc(N3CCN(C(=O)Nc4ccc(Oc5ccccc5)cc4)CC3)c2cc1OC`, the residual activity was 99.9%.
On the same count and under the same terms, the same measure for `Oc1ccc(Nc2nc(-c3ccc(Cl)cc3)cs2)cc1`: 101%.

The target in the next assay is ADRBK1 (human) (UniProt P25098). Described as above. Conditions: compound 0.5 µM; ATP 10 µM.
For `O=C1NC(=O)C(c2cn(CCCO)c3ncccc23)=C1c1cnccn1`, the residual activity worked out at 114%.
Still for that read-out and setting: the same measure for `COc1cc2ncnc(N3CCN(C(=O)Nc4ccc(Oc5ccccc5)cc4)CC3)c2cc1OC`: 96.7%; for `Oc1ccc(Nc2nc(-c3ccc(Cl)cc3)cs2)cc1`: 100%.

For a further assay, the target named is PHKG2 (human) (UniProt P15735). The description is as above. Conditions: compound 0.5 µM; ATP 10 µM.
Chain of PHKG2 (human) (P15735 whole entry, looked up): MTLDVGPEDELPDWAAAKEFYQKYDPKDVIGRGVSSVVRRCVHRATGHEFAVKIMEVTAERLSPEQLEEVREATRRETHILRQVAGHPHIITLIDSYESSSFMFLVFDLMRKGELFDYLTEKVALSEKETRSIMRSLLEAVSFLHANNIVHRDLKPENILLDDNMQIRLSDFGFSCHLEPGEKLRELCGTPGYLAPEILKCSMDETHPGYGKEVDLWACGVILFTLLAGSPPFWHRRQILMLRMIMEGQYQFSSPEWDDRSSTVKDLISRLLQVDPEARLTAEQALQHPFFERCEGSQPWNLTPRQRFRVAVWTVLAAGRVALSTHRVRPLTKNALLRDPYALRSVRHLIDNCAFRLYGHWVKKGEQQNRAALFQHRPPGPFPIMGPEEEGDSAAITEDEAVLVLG
For `O=C1NC(=O)C(c2cn(CCCO)c3ncccc23)=C1c1cnccn1`, the residual activity is 102%.
On the same count and under the same terms, in the case of `COc1cc2ncnc(N3CCN(C(=O)Nc4ccc(Oc5ccccc5)cc4)CC3)c2cc1OC` it was 128%; in that of `Oc1ccc(Nc2nc(-c3ccc(Cl)cc3)cs2)cc1`, 99.9%.

Another assay concerns the target FRK (human) (UniProt P42685). Described as above. The conditions noted are these: compound 0.5 µM; ATP 10 µM.
As to `O=C1NC(=O)C(c2cn(CCCO)c3ncccc23)=C1c1cnccn1`, the residual activity was 88.3%.
As to `COc1cc2ncnc(N3CCN(C(=O)Nc4ccc(Oc5ccccc5)cc4)CC3)c2cc1OC`, the residual activity was 90.2%.
Turning to `Oc1ccc(Nc2nc(-c3ccc(Cl)cc3)cs2)cc1`, the residual activity was 106%.

The next assay concerns the target HIPK4 (human) (UniProt Q8NE63). The description is as above. The conditions noted are these: compound 0.5 µM; ATP 10 µM.
With `O=C1NC(=O)C(c2cn(CCCO)c3ncccc23)=C1c1cnccn1`, the residual activity was 104%.
On the same count and under the same terms, in the case of `COc1cc2ncnc(N3CCN(C(=O)Nc4ccc(Oc5ccccc5)cc4)CC3)c2cc1OC` it was 75.4%; in that of `Oc1ccc(Nc2nc(-c3ccc(Cl)cc3)cs2)cc1`, 101%.

The target of another assay is TAOK3 (human) (UniProt Q9H2K8). Described as above. Conditions: compound 0.5 µM; ATP 10 µM.
In the case of `O=C1NC(=O)C(c2cn(CCCO)c3ncccc23)=C1c1cnccn1`, the residual activity was 88.2%.
Regarding `COc1cc2ncnc(N3CCN(C(=O)Nc4ccc(Oc5ccccc5)cc4)CC3)c2cc1OC`, the residual activity stood at 95.3%.
In the case of `Oc1ccc(Nc2nc(-c3ccc(Cl)cc3)cs2)cc1`, the residual activity amounted to 101%.

The target of another assay is AKT2 (human) (UniProt P31751). Described as above. Conditions: compound 0.5 µM; ATP 10 µM.
Turning to `O=C1NC(=O)C(c2cn(CCCO)c3ncccc23)=C1c1cnccn1`, the residual activity came to 114%.
With `COc1cc2ncnc(N3CCN(C(=O)Nc4ccc(Oc5ccccc5)cc4)CC3)c2cc1OC`, the residual activity was 87.6%.
On to `Oc1ccc(Nc2nc(-c3ccc(Cl)cc3)cs2)cc1`, for which the residual activity was determined as 96.4%.

The target of a further assay is NTRK1 (human) (UniProt P04629). The description is as above. The conditions noted are these: compound 0.5 µM; ATP 10 µM.
`O=C1NC(=O)C(c2cn(CCCO)c3ncccc23)=C1c1cnccn1`: the residual activity was 88.1%.
Same read-out and setting: in the case of `COc1cc2ncnc(N3CCN(C(=O)Nc4ccc(Oc5ccccc5)cc4)CC3)c2cc1OC` it was 90.6%; in that of `Oc1ccc(Nc2nc(-c3ccc(Cl)cc3)cs2)cc1`, 104%.

The target in a further assay is CDC42BPA (human) (UniProt Q5VT25). Described as above. Conditions: compound 0.5 µM; ATP 10 µM.
Chain of CDC42BPA (human) (Q5VT25 whole entry, looked up): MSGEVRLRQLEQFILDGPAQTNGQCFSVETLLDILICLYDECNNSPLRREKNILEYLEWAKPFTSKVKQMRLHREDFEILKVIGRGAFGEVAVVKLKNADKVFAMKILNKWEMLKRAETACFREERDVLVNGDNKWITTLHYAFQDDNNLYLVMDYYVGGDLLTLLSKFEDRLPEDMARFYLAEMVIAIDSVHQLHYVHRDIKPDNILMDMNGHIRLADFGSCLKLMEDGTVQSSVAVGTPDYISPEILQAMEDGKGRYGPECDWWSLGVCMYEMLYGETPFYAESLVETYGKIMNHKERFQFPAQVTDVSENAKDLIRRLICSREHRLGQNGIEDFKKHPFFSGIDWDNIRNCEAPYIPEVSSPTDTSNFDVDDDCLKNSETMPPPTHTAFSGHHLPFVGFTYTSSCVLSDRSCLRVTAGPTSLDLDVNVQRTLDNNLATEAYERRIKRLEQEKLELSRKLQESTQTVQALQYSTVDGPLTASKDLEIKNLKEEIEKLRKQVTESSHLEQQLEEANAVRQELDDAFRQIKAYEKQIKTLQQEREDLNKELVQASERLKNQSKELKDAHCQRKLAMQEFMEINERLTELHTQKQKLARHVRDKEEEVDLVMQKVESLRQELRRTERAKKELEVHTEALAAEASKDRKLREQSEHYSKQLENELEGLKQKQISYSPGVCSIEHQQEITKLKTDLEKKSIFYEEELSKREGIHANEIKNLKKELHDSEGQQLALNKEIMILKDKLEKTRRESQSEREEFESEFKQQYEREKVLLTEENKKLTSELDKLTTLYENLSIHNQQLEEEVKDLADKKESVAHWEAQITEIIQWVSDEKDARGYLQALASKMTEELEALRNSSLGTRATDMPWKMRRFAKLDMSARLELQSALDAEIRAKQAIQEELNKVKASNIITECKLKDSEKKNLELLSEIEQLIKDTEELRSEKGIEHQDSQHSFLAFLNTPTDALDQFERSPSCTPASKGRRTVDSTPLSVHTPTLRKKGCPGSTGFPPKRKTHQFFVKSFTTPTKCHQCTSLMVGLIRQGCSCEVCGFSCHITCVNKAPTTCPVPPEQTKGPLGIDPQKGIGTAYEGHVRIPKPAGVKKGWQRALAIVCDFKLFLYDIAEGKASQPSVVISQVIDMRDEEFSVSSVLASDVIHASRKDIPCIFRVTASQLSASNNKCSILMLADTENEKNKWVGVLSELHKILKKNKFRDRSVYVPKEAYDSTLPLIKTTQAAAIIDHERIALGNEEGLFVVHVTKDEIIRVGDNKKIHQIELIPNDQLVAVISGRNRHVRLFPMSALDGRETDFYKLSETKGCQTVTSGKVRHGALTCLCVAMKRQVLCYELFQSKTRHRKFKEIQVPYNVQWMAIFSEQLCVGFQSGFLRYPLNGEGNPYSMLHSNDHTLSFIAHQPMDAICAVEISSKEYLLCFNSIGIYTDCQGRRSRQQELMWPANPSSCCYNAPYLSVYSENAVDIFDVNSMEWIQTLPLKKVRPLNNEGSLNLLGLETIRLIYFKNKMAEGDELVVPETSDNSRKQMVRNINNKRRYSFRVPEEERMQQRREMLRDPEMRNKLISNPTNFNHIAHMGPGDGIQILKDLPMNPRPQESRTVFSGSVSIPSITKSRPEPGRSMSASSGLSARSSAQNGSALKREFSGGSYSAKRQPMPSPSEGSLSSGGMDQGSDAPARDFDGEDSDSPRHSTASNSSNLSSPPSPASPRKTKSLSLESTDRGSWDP
On to `O=C1NC(=O)C(c2cn(CCCO)c3ncccc23)=C1c1cnccn1`, for which the residual activity came to 78.6%.
Turning to `COc1cc2ncnc(N3CCN(C(=O)Nc4ccc(Oc5ccccc5)cc4)CC3)c2cc1OC`, the residual activity was 95.4%.
Same read-out and setting: the same measure for `Oc1ccc(Nc2nc(-c3ccc(Cl)cc3)cs2)cc1`: 87.1%.

A further assay has as its target STK4 (human) (UniProt Q13043). Described as above. Conditions: compound 0.5 µM; ATP 10 µM.
`O=C1NC(=O)C(c2cn(CCCO)c3ncccc23)=C1c1cnccn1`: the residual activity turned out to be 83.6%.
The same measure, in the same setting: in the case of `COc1cc2ncnc(N3CCN(C(=O)Nc4ccc(Oc5ccccc5)cc4)CC3)c2cc1OC` it was 97.1%; in that of `Oc1ccc(Nc2nc(-c3ccc(Cl)cc3)cs2)cc1`, 106%.

The next assay addresses HCK (human) (UniProt P08631). Described as above. Conditions: compound 0.5 µM; ATP 10 µM.
In the case of `O=C1NC(=O)C(c2cn(CCCO)c3ncccc23)=C1c1cnccn1`, the residual activity came to 63.4%.
Still for that read-out and setting: in the case of `COc1cc2ncnc(N3CCN(C(=O)Nc4ccc(Oc5ccccc5)cc4)CC3)c2cc1OC` it was 91.7%; in that of `Oc1ccc(Nc2nc(-c3ccc(Cl)cc3)cs2)cc1`, 96.1%.

A further assay deals with MARK2 (human) (UniProt Q7KZI7). Described as above. Conditions: compound 0.5 µM; ATP 10 µM.
Chain of MARK2 (human) (Q7KZI7 whole entry, looked up): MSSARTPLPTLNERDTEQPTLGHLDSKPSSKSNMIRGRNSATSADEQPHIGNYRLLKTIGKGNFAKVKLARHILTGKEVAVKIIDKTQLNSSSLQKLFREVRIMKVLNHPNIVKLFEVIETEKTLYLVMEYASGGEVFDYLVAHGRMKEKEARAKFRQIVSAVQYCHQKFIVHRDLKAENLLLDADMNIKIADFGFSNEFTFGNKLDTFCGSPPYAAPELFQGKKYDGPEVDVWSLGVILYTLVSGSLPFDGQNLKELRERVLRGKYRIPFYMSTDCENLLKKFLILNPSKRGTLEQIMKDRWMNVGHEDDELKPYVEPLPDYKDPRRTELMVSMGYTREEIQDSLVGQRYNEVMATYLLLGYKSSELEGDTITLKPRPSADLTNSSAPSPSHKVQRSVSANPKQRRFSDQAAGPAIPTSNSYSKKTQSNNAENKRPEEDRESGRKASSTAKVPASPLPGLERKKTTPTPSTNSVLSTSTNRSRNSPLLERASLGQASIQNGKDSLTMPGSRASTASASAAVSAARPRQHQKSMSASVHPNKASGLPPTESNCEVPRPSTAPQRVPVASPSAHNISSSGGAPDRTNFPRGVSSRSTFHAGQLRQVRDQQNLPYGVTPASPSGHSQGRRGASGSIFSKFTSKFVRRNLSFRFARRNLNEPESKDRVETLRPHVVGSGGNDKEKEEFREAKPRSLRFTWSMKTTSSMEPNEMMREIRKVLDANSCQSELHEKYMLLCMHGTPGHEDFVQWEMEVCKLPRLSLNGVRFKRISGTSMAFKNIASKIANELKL
With `O=C1NC(=O)C(c2cn(CCCO)c3ncccc23)=C1c1cnccn1`, the residual activity came out at 97.5%.
Same read-out and setting: the same measure for `COc1cc2ncnc(N3CCN(C(=O)Nc4ccc(Oc5ccccc5)cc4)CC3)c2cc1OC`: 97.4%.
On to `Oc1ccc(Nc2nc(-c3ccc(Cl)cc3)cs2)cc1`, for which the residual activity is 102%.

Values taken from the kinase profiling compilation of Christmann-Franck et al. (2016).
